# Earlier results as cited in patent publication US20210379148A1, “REGULATING MUSCLE PHYSIOLOGY AND ENERGY METABOLISM USING CRYM” (University Of Maryland, Baltimore, priority 2020, published 2021).
# Target: μ-crystallin ketimine reductase (Homo sapiens, UniProt Q14894)
# Details: read-out: K1, inhibition of μ-crystallin's activity as a ketimine reductase
# Chain of μ-crystallin ketimine reductase (Q14894 whole entry): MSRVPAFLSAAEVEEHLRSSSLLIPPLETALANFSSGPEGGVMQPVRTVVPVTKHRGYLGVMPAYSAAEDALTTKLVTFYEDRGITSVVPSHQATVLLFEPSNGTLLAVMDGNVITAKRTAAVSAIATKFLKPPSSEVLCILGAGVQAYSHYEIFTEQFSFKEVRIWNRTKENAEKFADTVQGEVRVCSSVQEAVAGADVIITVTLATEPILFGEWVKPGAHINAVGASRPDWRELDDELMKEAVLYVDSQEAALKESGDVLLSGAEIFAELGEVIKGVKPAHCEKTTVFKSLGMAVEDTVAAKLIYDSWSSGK
row,SMILES,Ki [nM]
1,N[C@@H](Cc1cc(I)c(Oc2cc(I)c(O)c(I)c2)c(I)c1)C(=O)O [T4],0.75

# Tested on: skeletal muscles (soleus, EDL)
# Details: rats, thyrotoxic doses of T3 and T4
row,SMILES,effect on fast twitch extensor digitorum longus (EDL) muscles
1,"N[C@@H](Cc1cc(I)c(Oc2ccc(O)c(I)c2)c(I)c1)C(=O)O [T3, triiodothyronine]",no effect
2,N[C@@H](Cc1cc(I)c(Oc2cc(I)c(O)c(I)c2)c(I)c1)C(=O)O [T4],no effect

# Same assay, conditions: rats, thyrotoxic doses of T3 and T4; without accompanying changes in contractile velocity
row,SMILES,effect on slow twitch soleus muscle
1,"N[C@@H](Cc1cc(I)c(Oc2ccc(O)c(I)c2)c(I)c1)C(=O)O [T3, triiodothyronine]",shift in slow twitch soleus muscle from slow to faster characteristics
2,N[C@@H](Cc1cc(I)c(Oc2cc(I)c(O)c(I)c2)c(I)c1)C(=O)O [T4],shift in slow twitch soleus muscle from slow to faster characteristics

# Target: thyroid hormone receptors (TR) α and β
# Details: read-out: KD, binding to thyroid hormone receptors (TR) α and β
row,SMILES,Kd [nM]
1,N[C@@H](Cc1cc(I)c(Oc2cc(I)c(O)c(I)c2)c(I)c1)C(=O)O [T4],2

# Tested on: CRYM mRNA
# Details: not given
row,SMILES,expression of CRYM mRNA
1,C[C@]12CCC(=O)C[C@@H]1CC[C@@H]1[C@@H]2CC[C@]2(C)[C@@H](O)CC[C@@H]12 [Dihydrotestosterone],Dihydrotestosterone results in increased expression of CRYM
2,[K+].[K+].[O]=[Cr](=[O])([O-])[O][Cr](=[O])(=[O])[O-] [Potassium Dichromate],Potassium Dichromate results in increased expression of

# Same assay, conditions: Methionine deficiency co-treated with Choline deficiency co-treated with Folic Acid deficiency
row,SMILES,expression of CRYM mRNA
1,Nc1nc2ncc(CNc3ccc(C(=O)N[C@@H](CCC(=O)O)C(=O)O)cc3)nc2c(=O)[nH]1 [Folic Acid],treated with Folic Acid deficiency] results in increased
2,CSCC[C@H](N)C(=O)O [Methionine],treated with Folic Acid deficiency] results in increased

# Same assay, conditions: NOG protein co-treated with entinostat, dorsomorphin and 4-(5-benzo(1,3)dioxol-5-yl-4-pyridin-2-yl-1H-imidazol-2-yl)benzamide
row,SMILES,expression of CRYM mRNA
1,"NC(=O)c1ccc(-c2nc(-c3ccccn3)c(-c3ccc4c(c3)OCO4)[nH]2)cc1 [4-(5-benzo(1,3)dioxol-5-yl-4-pyridin-2-yl-1H-imidazol-2-yl)benzamide]",pyridin-2-yl-1H-imidazol-2-yl)benzamide] results in increased
2,Nc1ccccc1NC(=O)c1ccc(CNC(=O)OCc2cccnc2)cc1 [entinostat],pyridin-2-yl-1H-imidazol-2-yl)benzamide] results in increased

# Same assay, conditions: Oxaliplatin co-treated with Topotecan
row,SMILES,expression of CRYM mRNA
1,O=C1[O][Pt]2([NH][C@@H]3CCCC[C@H]3[NH]2)[O]C1=O [Oxaliplatin],[Oxaliplatin co-treated with Topotecan] results in increased

# Same assay, conditions: chemical alone
row,SMILES,expression of CRYM mRNA
1,"c1ccc2c(c1)ccc1cc3c(ccc4ccccc43)cc12 [1,2,5,6-dibenzanthracene]","1,2,5,6-dibenzanthracene results in increased expression of"
2,"C=CC=C [1,3-butadiene]","1,3-butadiene results in increased expression of CRYM"
3,"Clc1cnc(Oc2ccc(Oc3ncc(Cl)cc3Cl)cc2)c(Cl)c1 [1,4-bis(2-(3,5-dichloropyridyloxy))benzene]",increased expression of CRYM mRNA
4,CC(N)Cc1ccccc1 (stereo not drawn) [Amphetamine],Amphetamine results in increased expression of CRYM
5,c1ccc2c(c1)cc1ccc3cccc4ccc2c1c34 [Benzo(a)pyrene],Benzo(a)pyrene results in increased expression of CRYM
6,ClC(Cl)(Cl)Cl [Carbon Tetrachloride],Carbon Tetrachloride results in increased expression of
7,CCCCOC(=O)c1ccccc1C(=O)OCCCC [Dibutyl Phthalate],Dibutyl Phthalate results in increased expression of CRYM
8,CCO [Ethanol],Ethanol results in increased expression of CRYM mRNA
9,CC1=C(/C=C/C(C)=C/C=C/C(C)=C/C(=O)Nc2ccc(O)cc2)C(C)(C)CCC1 [Fenretinide],Fenretinide results in increased expression of CRYM mRNA
10,O=C1[O][Pt]2([NH][C@@H]3CCCC[C@H]3[NH]2)[O]C1=O [Oxaliplatin],Oxaliplatin results in increased expression of CRYM mRNA
11,CCCc1cc(=O)[nH]c(=S)[nH]1 [Propylthiouracil],Propylthiouracil results in increased expression of CRYM
12,O=c1c(O)c(-c2ccc(O)c(O)c2)oc2cc(O)cc(O)c12 [Quercetin],Quercetin results in increased expression of CRYM mRNA
13,Clc1cc2c(cc1Cl)Oc1cc(Cl)c(Cl)cc1O2 [Tetrachlorodibenzodioxin],Tetrachlorodibenzodioxin results in increased expression of
14,CC[C@@]1(O)C(=O)OCc2c1cc1n(c2=O)Cc2cc3c(CN(C)C)c(O)ccc3nc2-1 [Topotecan],Topotecan results in increased expression of CRYM mRNA
15,CC1=C(/C=C/C(C)=C/C=C/C(C)=C/C(=O)O)C(C)(C)CCC1 [Tretinoin],Tretinoin results in increased expression of CRYM mRNA
16,CCCC(CCC)C(=O)O [Valproic Acid],Valproic Acid results in increased expression of CRYM
17,CN[C@@H](Cc1c[nH]c2ccccc12)C(=O)O [abrine],abrine results in increased expression of CRYM mRNA
18,CNC(=O)O[C@@H](CC(C)C)c1nc([C@H]2OC(=O)/C=C/C/C(C)=C/[C@@H](O)[C@@H](C)\C=C(C)/C=C(C)\C=C\[C@@H](O)[C@H](C)[C@H](OC)/C(C)=C/C=C/[C@@H]2C)cs1 [archazolid B],archazolid B results in increased expression of CRYM mRNA
19,O=S(=O)(c1ccc(O)cc1)c1ccc(O)cc1 [bis(4-hydroxyphenyl)sulfone],bis(4-hydroxyphenyl)sulfone results in increased expression
20,Oc1ccc(Cc2ccc(O)cc2)cc1 [bisphenol F],bisphenol F results in increased expression of CRYM mRNA
21,CCCC=O [butyraldehyde],butyraldehyde results in increased expression of CRYM
22,Nc1ccccc1NC(=O)c1ccc(CNC(=O)OCc2cccnc2)cc1 [entinostat],entinostat results in increased expression of CRYM mRNA
23,CCCCC=O [pentanal],pentanal results in increased expression of CRYM mRNA
24,CCC=O [propionaldehyde],propionaldehyde results in increased expression of CRYM

# Tested on: CRYM protein
# Details: chemical alone
row,SMILES,expression of CRYM protein
1,CN[C@@H](C)Cc1ccccc1 [Methamphetamine],Methamphetamine results in increased expression of CRYM
2,C[C@@H]1Cc2c(Cl)cc(C(=O)N[C@@H](Cc3ccccc3)C(=O)O)c(O)c2C(=O)O1 [ochratoxin A],ochratoxin A results in increased expression of CRYM protein
